Here are results for twelve compounds from paper PMC9278454, “Dyhidro-β-agarofurans natural and synthetic as acetylcholinesterase and COX inhibitors: interaction with the peripheral anionic site (AChE-PAS), and anti-inflammatory potentials” (Journal of Enzyme Inhibition and Medicinal Chemistry, 2022).

Like-named read-outs stand apart in the source and are kept apart here.

The target of test [1] is T1, AChE (Electrophorus electricus, UniProt O42275). The note with it: read-out: AChE IC50 (µM)±SE; average of 3 independent runs.
T1 sequence (O42275 24-633): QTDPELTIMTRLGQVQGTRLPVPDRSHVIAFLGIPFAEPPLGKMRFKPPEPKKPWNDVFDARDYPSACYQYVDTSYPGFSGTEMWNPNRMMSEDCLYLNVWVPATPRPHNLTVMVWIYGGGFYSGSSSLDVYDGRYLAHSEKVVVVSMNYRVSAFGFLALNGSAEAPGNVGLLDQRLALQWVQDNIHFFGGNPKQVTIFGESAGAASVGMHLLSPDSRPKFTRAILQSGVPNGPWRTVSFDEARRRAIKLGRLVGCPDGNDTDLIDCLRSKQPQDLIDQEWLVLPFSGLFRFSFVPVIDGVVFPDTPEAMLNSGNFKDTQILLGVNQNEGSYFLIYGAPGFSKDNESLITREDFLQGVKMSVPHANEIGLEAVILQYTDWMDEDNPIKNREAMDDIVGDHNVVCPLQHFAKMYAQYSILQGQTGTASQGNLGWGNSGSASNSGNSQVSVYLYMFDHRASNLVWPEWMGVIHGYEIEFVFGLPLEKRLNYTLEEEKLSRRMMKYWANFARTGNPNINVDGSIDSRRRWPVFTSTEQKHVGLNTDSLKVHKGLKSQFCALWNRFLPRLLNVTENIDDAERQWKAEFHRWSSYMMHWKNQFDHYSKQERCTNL
The next test concerns the target T2, ovine COX-1 (Ovis aries, UniProt P05979).
T2 construct: purchased 560131
T2 sequence (P05979 25-600): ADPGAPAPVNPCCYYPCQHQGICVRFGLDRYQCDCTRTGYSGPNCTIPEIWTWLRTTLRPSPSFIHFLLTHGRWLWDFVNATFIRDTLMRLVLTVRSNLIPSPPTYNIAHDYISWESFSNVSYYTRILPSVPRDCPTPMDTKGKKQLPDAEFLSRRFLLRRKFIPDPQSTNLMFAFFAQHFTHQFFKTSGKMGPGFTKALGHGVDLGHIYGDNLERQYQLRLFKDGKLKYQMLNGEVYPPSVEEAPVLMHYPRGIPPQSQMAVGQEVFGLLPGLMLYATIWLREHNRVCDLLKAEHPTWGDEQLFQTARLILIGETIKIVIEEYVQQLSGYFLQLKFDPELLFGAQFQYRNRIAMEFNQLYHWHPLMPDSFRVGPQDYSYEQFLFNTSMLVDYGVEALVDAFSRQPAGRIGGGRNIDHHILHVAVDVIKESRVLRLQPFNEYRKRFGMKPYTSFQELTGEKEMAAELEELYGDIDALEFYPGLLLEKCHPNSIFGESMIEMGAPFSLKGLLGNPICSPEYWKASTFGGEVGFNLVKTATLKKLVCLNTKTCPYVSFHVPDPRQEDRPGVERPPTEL
Briefly: COX Inhibitor Screening Assay kit, COX-1. It counts as biochemical.

The next test concerns the target T3, human recombinant COX-2 (Homo sapiens, UniProt P35354).
T3 construct: purchased 560131
T3 sequence (P35354 18-604): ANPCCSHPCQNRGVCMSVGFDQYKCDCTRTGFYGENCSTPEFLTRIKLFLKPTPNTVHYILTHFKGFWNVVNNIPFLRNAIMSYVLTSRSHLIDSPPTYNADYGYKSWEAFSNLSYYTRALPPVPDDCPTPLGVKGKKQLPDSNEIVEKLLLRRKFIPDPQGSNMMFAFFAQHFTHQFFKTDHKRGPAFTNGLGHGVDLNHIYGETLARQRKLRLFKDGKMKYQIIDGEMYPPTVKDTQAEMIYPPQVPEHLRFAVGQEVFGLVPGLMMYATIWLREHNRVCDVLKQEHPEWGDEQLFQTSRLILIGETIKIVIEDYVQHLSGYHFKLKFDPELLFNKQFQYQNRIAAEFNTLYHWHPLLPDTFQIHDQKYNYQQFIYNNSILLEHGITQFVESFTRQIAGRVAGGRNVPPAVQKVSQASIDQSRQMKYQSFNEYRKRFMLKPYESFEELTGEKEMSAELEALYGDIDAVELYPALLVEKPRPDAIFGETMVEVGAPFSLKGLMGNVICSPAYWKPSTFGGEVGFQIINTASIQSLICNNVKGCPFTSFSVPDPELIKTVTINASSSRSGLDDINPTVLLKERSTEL
Briefly: biochemical. It counts as biochemical. The settings on record: for IC50: average of 3 independent runs, read-out: COX-2 IC50 (µM)±SE.

Test [2] addresses T1, AChE. Briefly: biochemical.
Another test relates to Tc-AChE. Briefly: Kinetic characterisation of AChE inhibition (Lineweaver-Burk). It counts as biochemical, Torpedo californica.
The target of a further test is PAS of EeAChE (Electrophorus electricus, UniProt O42275). Briefly: Propidium iodide displacement from the PAS of AChE (fluorescence). It counts as binding. The note with it: EeAChE 7 µM, propidium iodide 8 µM; for % Displacement of propidium iodide 290 µM: compound 290 µM; for % Displacement of propidium iodide 340 µM: compound 340 µM.
Sequence of PAS of EeAChE (O42275 24-633): as the sequence (O42275 24-633) above
Setting [3] is: read-out: COX-1 IC50 (µM)±SE, average of 3 independent runs.
Setting [4] is: selectivity index, COX-1 IC50 / COX-2 IC50.

Experimental for PAS of EeAChE: The ability of compounds to competitively displace propidium iodide was evaluated by a fluorescence method[43]. […] Donepezil was used as reference compound. The blank contained propidium iodide of the same concentration in 1 mM Tris-HCl buffer pH 8.0. The measurements were carried out in triplicate on a microplate reader Perkin Elmer VictorX2 (Perkin Elmer, Singapur).
Experimental for Tc-AChE: The rate of enzyme activity was measured at eight different concentrations of substrate acetylthiocholine iodide (ATC).
Data analysis was carried out with SigmaPlot v10.0.

Usually IC50 stands for the concentration needed to halve the response being measured. In the case of `CC(=O)O[C@@H]1[C@@H]2[C@@H](OC(C)=O)[C@]3(OC2(C)C)[C@H](C)CC[C@H](O)[C@@]3(C)[C@H]1OC(=O)c1ccoc1` [Compound 10, 6β,8α-diacetoxy-9β-furoyloxy-1α-hydroxydihydro-β-agarofuran], the 50% inhibitory concentration (IC50) is 740 ± 0.045 µM on AChE [1], 13.74 ± 0.1 µM on ovine COX-1 (setting [3]) and 0.29 ± 0.0003 µM on human recombinant COX-2. Moreover, at human recombinant COX-2, the “SI(COX-1/COX-2)” value was 47.37.
The corresponding values for `CC(=O)O[C@H]1CC[C@](C)(O)[C@]23OC(C)(C)[C@H](C[C@H](OC(=O)c4ccoc4)[C@]12C)[C@H]3OC(=O)c1ccoc1` [Compound 8, 1α-Acetoxy-6β,9β-difuroyloxy-4β-hydroxydihydro-β-agarofuran] are 738 ± 0.007 µM, 10.59 ± 0.02 µM, 0.04 ± 0.007 µM and 264.75.
Regarding `CC(=O)OC1CCC2(C)CCC3CC2(OC3(C)C)C1(C)O` (stereo not drawn) [Compound 5, 3α-acetoxy-4α-hydroxydhydro-β-agarofuran], the IC50 against AChE [2] is 43 ± 0.015 µM; on ovine COX-1, 13.08 ± 0.02 µM; on human recombinant COX-2 it was 0.4 ± 0.0014 µM. In addition, the “SI(COX-1/COX-2)” value on human recombinant COX-2 is reported as 32.7.
As to `CC1(C)OC23CC1CCC2(C)CCC(OC(=O)c1ccco1)C3CO` (stereo not drawn) [Compound 6, 3α-furoyloxy-15-hydroxydihydro-β-agarofuran], the values for the IC50 on AChE [2], at ovine COX-1 and on human recombinant COX-2 were 32 ± 0.006 µM, 12.69 ± 0.035 µM and 0.13 ± 0.003 µM, respectively. Also, the “SI(COX-1/COX-2)” value on human recombinant COX-2 came to 97.61.
`CC(=O)OC[C@@]12[C@@H](OC(C)=O)CC[C@@H](C)[C@]13OC(C)(C)[C@H](C[C@@H]2OC(=O)c1ccccc1)[C@H]3OC(C)=O` [Compound 9, 1α,6β,14-triacetoxy-9β-benzyloxydihydro-β-agarofuran]: the values for the half-inhibitory concentration (IC50) on AChE [2], against ovine COX-1 and at human recombinant COX-2 were 695 ± 0.001 µM, 8.69 ± 0.03 µM and 0.07 ± 0.004 µM, respectively. For the same compound, on human recombinant COX-2, the “SI(COX-1/COX-2)” value was 124.14.
Regarding `CC(=O)OC[C@]12[C@@H](OC(=O)c3ccccc3)[C@H](OC(C)=O)[C@@H]3[C@@H](OC(=O)c4ccccc4)[C@]1(OC3(C)C)[C@@](C)(O)[C@H](OC(C)=O)[C@H](OC(C)=O)[C@@H]2OC(C)=O` [Compound 12, 1α,2α,3α,8α,14-pentaacetoxy-6β,9β-dibenzyloxy-4β-hydroxidihydro-β-agarofuran], the concentration for half-maximal inhibition (IC50) was found to be 14.2 ± 0.2 µM against ovine COX-1 and 0.84 ± 0.012 µM on human recombinant COX-2. For the same compound, on human recombinant COX-2 (setting [4]), the “SI(COX-1/COX-2)” value is 16.92.
As for `CC(=O)O[C@@H]1[C@H]2[C@@H](O)[C@H](OC(=O)c3ccccc3)[C@]3(C)[C@@H](O)CC[C@@H](C)[C@@]13OC2(C)C` [Compound 13], the 50% inhibitory concentration (IC50) against AChE [2] came out at 500 ± 0.03 µM; on ovine COX-1, 11.36 ± 0.035 µM; on human recombinant COX-2, 0.11 ± 0.007 µM. Besides, at human recombinant COX-2, the “SI(COX-1/COX-2)” value was determined as 103.27.
What is called Km is the concentration of substrate that gives half-maximal velocity. The compound `CC1(C)OC23CC1CCC2(C)CCC(O)C3(C)O` (stereo not drawn) [Compound 4, 3α,4α-dihydroxydihydro-β-agarofuran] showed an IC50 against AChE [2] of 17 ± 0.016 µM. In addition, half-maximal inhibition against ovine COX-1 (IC50) was put at 14.21 ± 0.035 µM. Further, the “Mode of AChE inhibition” value in the test on Tc-AChE (Lineweaver-Burk plots, eight concentrations of substrate ATC) is recorded as “non-competitive inhibitor”. Also, in the test on Tc-AChE (unchanged at increasing concentrations of the inhibitor, substrate ATC), the Km came out at 110 µM. Besides, on PAS of EeAChE, the “% Displacement of propidium iodide 290 µM” value turned out to be 13.9 ± 0.3% and the “% Displacement of propidium iodide 340 µM” value turned out to be 17.6 ± 0.5%. Moreover, on human recombinant COX-2, the “SI(COX-1/COX-2)” value amounted to 37.39 and the IC50 was determined as 0.38 ± 0.007 µM.
On to `CC1(C)OC23CC1CCC2(C)CCC(OC(=O)c1ccccc1)C3CO` (stereo not drawn) [Compound 7], for which the half-maximal inhibitory concentration (IC50) turned out to be 11.98 ± 0.042 µM against ovine COX-1 and 0.21 ± 0.008 µM at human recombinant COX-2. Besides, the “SI(COX-1/COX-2)” value at human recombinant COX-2 (setting [4]) came out at 57.05.
For the compound `Cc1ccc(C(C)C)cc1O` [Carvacrol, reference compound], the IC50 against AChE [2] was found to be 45 ± 0.031 µM.
Regarding `CC1=CCC[C@@]2(C)CC[C@@H]3C[C@]12OC3(C)C` [Compound 3, α-agarofuran], the IC50 on AChE [2] is 26 ± 0.012 µM; on ovine COX-1, 11.36 ± 0.035 µM; on human recombinant COX-2 it was 0.17 ± 0.002 µM. In addition, the “% Displacement of propidium iodide 290 µM” value on PAS of EeAChE is reported as 12.2 ± 0.2%. Besides, the “% Displacement of propidium iodide 340 µM” value at PAS of EeAChE amounted to 15.8 ± 0.5%. In addition, the “SI(COX-1/COX-2)” value on human recombinant COX-2 stood at 66.82.
Consider `CC(=O)O[C@@H]1[C@H](OC(=O)c2ccccc2)[C@@]2(C)[C@@H](OC(=O)c3ccccc3)C[C@@H]3[C@@H](OC(C)=O)[C@]2(OC3(C)C)[C@@](C)(O)[C@H]1OC(C)=O` [Compound 11], for which 30 ± 0.06 µM corresponded to half-maximal inhibition on AChE [2] (IC50). For the same compound, 13.08 ± 0.02 µM corresponded to half-maximal inhibition against ovine COX-1 (IC50). At PAS of EeAChE, the “% Displacement of propidium iodide 290 µM” value came to 12.1 ± 0.7% and the “% Displacement of propidium iodide 340 µM” value was found to be 13.4 ± 0.2%. For the same compound, on human recombinant COX-2, the “SI(COX-1/COX-2)” value came out at 145.33 and the IC50 amounted to 0.09 ± 0.005 µM.
